Assay results: US10076505B2, “Inhalation formulations of Treprostinil” (priority 2003, dated 2018)

How the values were obtained:
[1] = system: human pulmonary arterial smooth muscle cells; settings: cited from earlier work
sheep [2] = assay: Intravenous and aerosolized UT-15 dose response on baseline hemodynamics (Example IV); assay type: in vivo; settings: baseline conditions; for PCV relative to baseline: any dose; for CO relative to baseline: any delivery rate; for PSYS: any rate
Method: Six yearling sheep (3 males, 3 females; 21-37 kg) were fasted 18-24 hours and initially anesthetized with a short acting barbiturate (thiopental) to allow intubation of the sheep. Halothane gas anesthesia (1.5-2.5%) was then used for the surgical procedures. Via a left thoracotomy, a Transonic blood flow probe was placed around the main pulmonary artery, silastic catheters placed in the main pulmonary artery and left atrium. After approximately 7 days the sheep were reanesthetized and the left carotid artery cannulated, a Cordis Introducer Sheath inserted in the left jugular vein, and a tracheotomy made. The sheep were allowed to recover for another 3-5 days prior to experimentation. These sheep were used to allow measurement of pulmonary arterial pressure (PPA), left atrial pressure (PLA), central venous pressure (PCV), systemic arterial pressure (PSYS), heart rate (HR), and cardiac output (CO) after baseline measurements were made for a minimum of 30 minutes. Two separate experiments were conducted to determine the dose response effects of intravenously infused UT-15 on baseline hemodynamics and aerosolized UT-15 on baseline hemodynamics. For the infusion experimental protocol, after a 30 minute baseline was established, UT-15 was infused intravenously at 3 rates (250, 500 and 1000 ng per kg per min). In three sheep, the infusion rates lasted for 30 minutes each, and for the other three sheep, the infusions were for 60 minutes each. […] Again, three sheep were aerosolized for 30 minutes and the other three sheep were aerosolized for 60 minutes.

digital ischemic lesions = assay: Study of Treprostinil for digital ischemic lesions in patients with systemic sclerosis (Example VIII); assay type: in vivo, human
Method: This study involved 12 subjects with diffuse or limited scleroderma with at least one DIL that had been present for 2 months or more (Table 1). Subjects who completed the study were treated for 12 weeks with Treprostinil and followed for another 8 weeks after drug discontinuation (FIG. 1). […] Assessments were performed at baseline, weeks 2, 6, 12, 16, and 20. At each visit, the largest (target) lesion and other prominent DIL were measured by recording the largest diameter of the lesions. DIL were counted and photographed. Patient and physician global assessment of ulcers as well as patient assessment of disability from DIL were measured using visual analogue scales (VAS) at each visit.

sheep [3] = assay: Aerosolized UT-15 at high doses on baseline hemodynamics (Example III); assay type: in vivo
Description: The efficacy of benzindene prostaglandins, such as UT-15, for treating pulmonary hypertension can be assessed by determining the hemodynamics associated with pulmonary hypertension. In particular, measurements of pulmonary arterial pressure (PPA), left atrial pressure (PLA), central venous pressure (PCV), systemic arterial pressure (PSYS), heart rate (HR), and cardiac output (CO) are useful in determining the effects of benzindene prostaglandins delivered by inhalation or parenterally.
Although pulmonary arterial pressure can be directly measured and is often used to quantify pulmonary arterial hypertension, PPA can be affected by 3 other variables: CO, PLA and PVR, as indicated by Equation 1: PPA=(CO*PVR)+PLA (1)
On the other hand, PVR can not be directly measured and must be calculated by the following Equation 2: PVR=(PPA−PLA)/CO (2)
Heart rate was determined by measuring the time (seconds) required for 25 heart beats to occur (t25) as indicated by the pulsations on the blood flow meter; the beats per minute (BPM) were calculated by the following equation: BPM=(25 beats/t25)*60 seconds
All pressure may be monitored by commercially available transducers, such as Model 1290A HEWLETT PACKARD™ transducer (Andover, Mass.), which is attached to VALIDYNE CD19A Carrier Dmod. Amplifiers (Northridge, Calif.). Cardiac output may be measured by a Transonic Systems T101 Ultrasonic Bloodflow Meter (Ithaca, N.Y.). The pressure and blood flow signals may be recorded on ASTROMED MT-9500 Stripchart Recorder (West Warwick, R.I.) and digitally recorded with a personal computer using Easy Data Acquisition Software (Nashville, Tenn.).
Six yearling sheep (3 males, 3 females; 21-37 kg) were fasted 18-24 hours and initially anesthetized with a short acting barbiturate (thiopental) to allow intubation of the sheep. Halothane gas anesthesia (1.5-2.5%) was then used for the surgical procedures. Via a left thoracotomy, a Transonic blood flow probe was placed around the main pulmonary artery, silastic catheters placed in the main pulmonary artery and left atrium. After approximately 7 days the sheep were reanesthetized and the left carotid artery cannulated, a Cordis Introducer Sheath inserted in the left jugular vein, and a tracheotomy made. The sheep were allowed to recover for another 3-5 days prior to experimentation. These sheep were used to allow measurement of pulmonary arterial pressure (PPA), left atrial pressure (PLA), central venous pressure (PCV), systemic arterial pressure (PSYS), heart rate (HR), and cardiac output (CO) after baseline measurements were made for a minimum of 30 minutes.
Baseline measurements consisted of 30 minutes of monitoring during vehicle/saline aerosolization (0.28 ml/min). […]

[4] = 3800-5700 ng per kg per min, 90 minutes

CCCCC[C@H](O)CC[C@@H]1[C@H]2Cc3cccc(OCC(=O)O)c3C[C@H]2C[C@H]1O [UT-15, 9-deoxy-2′,9-alpha-methano-3-oxa-4,5,6-trinor-3,7-(1′,3′-interphenylene)-13,14-dihydro-prostaglandin F1]
proliferation of human pulmonary arterial smooth muscle cells [1]: inhibits proliferation
PCV relative to baseline (sheep [2]; aerosol): no statistical difference
PLA relative to baseline (sheep [2]; aerosolized (mean values increased)): neither intravenous nor aerosolized UT-15 caused PLA to significantly change
heart rate (sheep [2]; aerosolized, 3 rates): no effect
pulmonary vascular driving pressure (PPA minus PLA) change from baseline (sheep [2]; aerosolized, 250, 500, and 100 ng per kg per min): significant
PVR (sheep [2]; aerosolized, all 3 delivery rates): significant decrease
CO relative to baseline (sheep [2]; aerosolized): no significant changes
PSYS (sheep [2]; aerosolized): no significant effect
PPA relative to baseline (sheep [2]; aerosolized, not statistically different): general trend for PPA to decrease
PVR (sheep [2]; intravenous): no significant effect
heart rate (sheep [2]; intravenous 250, 500 and 1000 ng per kg per min): significantly increased
PLA relative to baseline (sheep [2]; intravenous (mean values decreased)): neither intravenous nor aerosolized UT-15 caused PLA to significantly change
CO relative to baseline (sheep [2]; intravenous): no significant changes
PCV relative to baseline (sheep [2]; intravenous): no statistical difference
PSYS (sheep [2]; intravenous): no significant effect
PPA relative to baseline (sheep [2]; intravenous, same as PCV (no statistical difference)): The same effects were also observed
physician global assessment of DIL severity, average improvement (digital ischemic lesions; after 12 weeks of therapy): 60%
patients who developed new ulcers during the 8-week follow-up period after drug discontinuation (digital ischemic lesions; after drug discontinuation): two of three
new ulcers while receiving continuous therapy (digital ischemic lesions; any patients): No new ulcers
subjective measures of severity of DIL (patient and physician global assessment, DIL disability VAS) (digital ischemic lesions; by week 6, all five subjects): marked improvements
DIL disability VAS score, average improvement (digital ischemic lesions; by week 12): 77%
patient global assessment, average improvement (digital ischemic lesions; by week 12): 89%
average decrease in the size of baseline DIL (digital ischemic lesions; continuous sc infusion, 12 weeks): 65%
target lesions (digital ischemic lesions; four subjects who completed 12 weeks of active therapy, sc infusion up to 15 ng/kg/min): improved in all patients
subjects unable to complete the study due to intolerable injection site pain (digital ischemic lesions; of 12 subjects): five
subjects with complete resolution of their target lesions (digital ischemic lesions; of the four subjects who completed 12 weeks): three
PPA decrease relative to baseline (sheep [3]; [4]): approximately 18%
PSYS decrease relative to baseline (sheep [3]; [4]): 7.5%
PVR decrease relative to baseline (sheep [3]; [4]): approximately 19%
non-lung effects (heart rate, cardiac output) (sheep [3]; high doses): without significant non-lung effects
